Drawing on patent US11040954B1, “CXCR3 receptor agonists” (RECEPTOS LLC, priority 2016, dated 2021), this text covers EC50 for 44 compounds.

By EC50 is commonly meant the concentration needed to bring the measured effect to its halfway point.

The assay concerns the target T1, CXCR3 (Homo sapiens, UniProt P49682).
T1 construct: host or cells: CHO-K1 (cAMP Hunter CHOK1 CXCR3 Gi cell line)
T1 sequence (P49682 1-368): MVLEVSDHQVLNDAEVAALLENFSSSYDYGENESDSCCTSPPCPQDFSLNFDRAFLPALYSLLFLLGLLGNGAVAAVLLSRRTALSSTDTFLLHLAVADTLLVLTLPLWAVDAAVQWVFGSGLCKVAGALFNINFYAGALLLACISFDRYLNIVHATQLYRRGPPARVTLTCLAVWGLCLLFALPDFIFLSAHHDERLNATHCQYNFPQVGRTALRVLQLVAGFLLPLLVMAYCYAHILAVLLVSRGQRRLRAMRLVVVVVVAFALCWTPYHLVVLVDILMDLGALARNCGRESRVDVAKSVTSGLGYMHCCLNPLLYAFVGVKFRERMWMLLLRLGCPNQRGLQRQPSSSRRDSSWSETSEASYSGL
In words: CXCR3 cAMP agonist assay (cAMP Hunter CHOK1 CXCR3 Gi cell line, forskolin-stimulated, HitHunter cAMP detection). In kind it is cell-based. The settings on record: cAMP Hunter CHOK1 CXCR3 Gi cells, 20 μM forskolin, 30 minutes; read-out: Activity (CXCR3 cAMP agonist assay compound EC50). How it is done:
The cAMP Hunter™ CHOK1 CXCR3 Gi cell line was purchased from DiscoveRx. Cells were seeded into a 96-well white assay plate at 50,000 cells/well/94 μl assay buffer (Hank's Buffered Saline Solution, 10 mM HEPES, 0.1% fatty acid-free BSA, pH 7.4) and immediately assayed in suspension. Forskolin was added to 20 μM (5 μl of 400 μM stock) simultaneously with a 12-point dose response curve of compound at 0-10 μM (1 μl of 100× stock in 100% DMSO), and cells were incubated for 30 minutes. A cAMP standard curve is run as an assay control. A CXCL11 dose response was included to determine maximum efficacy. Direct detection of cAMP was carried out using the DiscoveRx HitHunter cAMP kit according to manufacturer's instructions, and luminescence was read using a SpectraMax M5 plate reader.

As to `O=C(CCC(=O)N1Cc2ccccc2C[C@H]1C(=O)N[C@@H](CCN1CCC(O)CC1)C(=O)Nc1ccc2c(c1)CCC2)c1ccccc1` [Compound 28-1, (S)—N—((S)-1-((2,3-dihydro-1H-inden-5-yl)amino)-4-(4-hydroxypiperidin-1-yl)-1-oxobutan-2-yl)-2-(4-oxo-4-phenylbutanoyl)-1,2,3,4-tetrahydroisoquinoline-3-carboxamide], the EC50 was below 50 nM.

With `CN(CC(C)(C)C)C(=O)CCC(=O)N1Cc2ccccc2C[C@H]1C(=O)NC1(C(=O)Nc2ccc(Cl)c(Cl)c2F)CCNCC1` [Compound 12-137], the EC50 was 50 to 250 nM.

On to `N#Cc1ccccc1NC(=O)[C@H](CCN)NC(=O)[C@@H]1Cc2ccccc2CN1C(=O)CCC(=O)c1ccccc1` [Compound 27-4], for which the concentration giving a half-maximal response (EC50) is below 50 nM.

Consider `Cc1cc(NC(=O)[C@H](CCN)NC(=O)[C@@H]2Cc3ccccc3CN2C(=O)CCC(=O)N2CCCC2c2ccccc2)ccc1Cl` (some centres unmarked) [Compound 12-53], for which the EC50 was below 50 nM.

As for `CS(=O)(=O)C1CCN(C(=O)CCC(=O)N2Cc3ccccc3C[C@H]2C(=O)N[C@@H](CCN)C(=O)Nc2ccc(Cl)c(Cl)c2F)CC1` [Compound 15-13], the concentration for a half-maximal effect (EC50) was above 500 nM.

In the case of `Cc1cc(NC(=O)[C@H](CCN)NC(=O)[C@@H]2Cc3ccccc3CN2C(=O)CCC(=O)N2CCC(C)(C)CC2)ncc1Cl` [Compound 12-159], the 50% effective concentration (EC50) was below 50 nM.

Consider `Cc1cc(NC(=O)[C@H](CCCNC(=N)N)NC(=O)[C@@H]2Cc3ccccc3CN2C(=O)CCC(=O)c2ccccc2)ccc1Cl` [Compound 1-32], for which the EC50 was below 50 nM.

Take `Cc1cc(NC(=O)[C@H](CCNS(C)(=O)=O)NC(=O)[C@@H]2Cc3ccccc3CN2C(=O)CCC(=O)N2CCCCC2)ccc1Cl` [Compound 32-2]: the half-maximal effective concentration (EC50) was below 50 nM.

With `Cc1cccc(F)c1NC(=O)[C@H](CCN)NC(=O)[C@@H]1Cc2ccccc2CN1C(=O)CCC(=O)c1ccccc1` [Compound 14-5], the half-maximal effective concentration (EC50) was in the range of 250 to 500 nM.

For `Cc1cc(NC(=O)[C@H](CCN)NC(=O)[C@@H]2Cc3ccccc3CN2C(=O)CCC(=O)N2CCC(C(C)(C)C)CC2)ccc1Cl` [Compound 12-87], the half-maximal effective concentration (EC50) was below 50 nM.

On to `Cc1cc(NC(=O)[C@H](CCN)NC(=O)[C@@H]2Cc3ccccc3CN2C(=O)CCC(=O)N2CCN(C)[C@@H](C)C2)ccc1Cl` [Compound 12-36], for which the 50% effective concentration (EC50) is below 50 nM.

For `Cc1cc(NC(=O)[C@H](CCN)NC(=O)[C@@H]2Cc3ccccc3CN2C(=O)CCC(=O)N2CCN(C)CC2)ccc1Cl` [Compound 10-3], the EC50 was below 50 nM.

As for `NCC[C@H](NC(=O)[C@@H]1Cc2ccccc2CN1C(=O)CCC(=O)c1ccccc1)C(=O)Nc1cc(Cl)c(Cl)cc1F` [Compound 2-20], the half-maximal effective concentration (EC50) lay within 50 to 250 nM.

For `O=C(CCC(=O)N1Cc2ccccc2C[C@H]1C(=O)N[C@@H](CCN1CC(F)(F)C1)C(=O)Nc1ccc2c(c1)CCC2)c1ccccc1` [Compound 23-6], the EC50 is 50 to 250 nM.

Turning to `Cc1cc(NC(=O)[C@H](CCN)NC(=O)[C@@H]2Cc3ccccc3CN2C(=O)CCC(=O)N2CCN3CCC[C@@H]3C2)ccc1Cl` [Compound 12-110], the EC50 is below 50 nM.

On to `NCC[C@H](NC(=O)[C@@H]1Cc2ccccc2CN1C(=O)CCC(=O)c1ccccc1)C(=O)Nc1cccc(Cl)c1C(F)(F)F` [Compound 14-16], for which the EC50 fell in the range of 250 to 500 nM.

For `Cc1cc(NC(=O)[C@H](CCN)NC(=O)[C@@H]2Cc3ccccc3CN2C(=O)CCC(=O)NCC2CCOCC2)ccc1Cl` [Compound 12-12], the 50% effective concentration (EC50) is above 500 nM.

In the case of `Cc1cc(NC(=O)[C@H](Cc2cncn2C)NC(=O)[C@@H]2Cc3ccccc3CN2C(=O)CCC(=O)c2ccccc2)ccc1Cl` [Compound 5-2], the EC50 is 50 to 250 nM.

With `Cc1cc(NC(=O)[C@H](CCN)NC(=O)[C@@H]2Cc3ccccc3CN2C(=O)CCC(=O)N(C)CC(F)(F)F)ccc1Cl` [Compound 12-119], the EC50 was in the range of 250 to 500 nM.

`NCC[C@H](NC(=O)[C@@H]1Cc2ccccc2CN1C(=O)CCC(=O)c1ccccc1)C(=O)Nc1ccc2c(c1Cl)CCC2` [Compound 2-77]: the half-maximal effective concentration (EC50) was 50 to 250 nM.

Turning to `Cc1cc(NC(=O)[C@H](CCN)NC(=O)[C@@H]2Cc3ccccc3CN2C(=O)CCC(=O)N2CCC(C)(C)CC2)cc(C)c1Cl` [Compound 10-12], the concentration giving a half-maximal response (EC50) was below 50 nM.

As for `Cc1cc(NC(=O)[C@H](CCN)NC(=O)[C@@H]2Cc3ccccc3CN2C(=O)CCC(=O)N2CCN(C3CC3)CC2)ccc1Cl` [Compound 12-33], the concentration for a half-maximal effect (EC50) lay within 50 to 250 nM.

For `NCC[C@H](NC(=O)[C@@H]1Cc2ccccc2CN1C(=O)CCC(=O)N1CCC2(CC1)CC(F)(F)C2)C(=O)Nc1ccc(Cl)c(Cl)c1F` [Compound 15-24], the concentration for a half-maximal effect (EC50) lay in the range of 250 to 500 nM.

For `Cc1cc(NC(=O)[C@H](CCN)NC(=O)[C@@H]2Cc3ccccc3CN2C(=O)CCC(=O)N2CCC[C@H]2C(F)F)ccc1Cl` [Compound 12-143], the EC50 is below 50 nM.

With `Cc1cc(NC(=O)[C@H](CCCCN)NC(=O)[C@@H]2Cc3ccccc3CN2C(=O)CCC(=O)c2cccc(N(C)C)c2)ccc1Cl` [Compound 7-6], the concentration for a half-maximal effect (EC50) lay in the range of 50 to 250 nM.

With `Cc1cc(NC(=O)[C@H](CCN)NC(=O)[C@@H]2Cc3ccccc3CN2C(=O)CCC(=O)N2CCCC(F)C2)ccc1Cl` (some centres unmarked) [Compound 12-63], the half-maximal effective concentration (EC50) was below 50 nM.

Regarding `CC(C)C1CCN(C(=O)CCC(=O)N2Cc3ccccc3C[C@H]2C(=O)N[C@@H](CCN)C(=O)Nc2ccc(Cl)c(Cl)c2F)C1` (some centres unmarked) [Compound 15-9], the half-maximal effective concentration (EC50) was below 50 nM.

Turning to `Cc1cc(NC(=O)[C@H](CCN)NC(=O)[C@@H]2Cc3ccccc3CN2C(=O)CCC(=O)N2CC[C@@H](N(C)C)C2)ccc1Cl` [Compound 12-50], the EC50 was below 50 nM.

As to `CN(C)CC1CCCCN1C(=O)CCC(=O)N1Cc2ccccc2C[C@H]1C(=O)N[C@@H](CCN)C(=O)Nc1ccc(Cl)c(Cl)c1F` (some centres unmarked) [Compound 15-17], the half-maximal effective concentration (EC50) is above 500 nM.

With `NCC[C@H](NC(=O)[C@@H]1Cc2ccc(O)cc2CN1C(=O)CCC(=O)c1ccccc1)C(=O)Nc1ccc(Cl)c(Cl)c1F` [Compound 4-20], the EC50 is below 50 nM.

Take `COc1cccc(NC(=O)[C@H](CCCCN)NC(=O)[C@@H]2Cc3ccccc3CN2C(=O)CCC(=O)c2ccccc2)c1` [Compound 1-11]: the concentration giving a half-maximal response (EC50) lay within 250 to 500 nM.

As to `NCC[C@H](NC(=O)[C@@H]1Cc2ccccc2CN1C(=O)CCC(=O)c1ccccc1)C(=O)Nc1ccccc1C(F)(F)F` [Compound 14-15], the 50% effective concentration (EC50) was in the range of 250 to 500 nM.

Regarding `NCC[C@@H](NC(=O)[C@@H]1Cc2ccccc2CN1C(=O)CCC(=O)c1ccccc1)C(=O)Nc1ccc(Cl)c(Cl)c1F` [Compound 14-29], the concentration for a half-maximal effect (EC50) lay in the range of 250 to 500 nM.

With `COC[C@@H]1CCCN1C(=O)CCC(=O)N1Cc2ccccc2C[C@H]1C(=O)N[C@@H](CCN)C(=O)Nc1ccc(Cl)c(C)c1` [Compound 12-134], the EC50 lay in the range of 50 to 250 nM.

Regarding `CCc1c(C)cccc1NC(=O)[C@H](CCN)NC(=O)[C@@H]1Cc2ccccc2CN1C(=O)CCC(=O)c1ccccc1` [Compound 2-53], the EC50 was 50 to 250 nM.

As to `Cc1cc(NC(=O)[C@H](CCN)NC(=O)[C@@H]2Cc3ccccc3CN2C(=O)CCC(=O)c2ccccc2)ccc1C(F)(F)F` [Compound 2-27], the EC50 lay in the range of 50 to 250 nM.

Take `NCC[C@H](NC(=O)[C@@H]1Cc2ccccc2CN1C(=O)CCC(=O)c1ccccc1)C(=O)Nc1ccc(Cl)c(C(F)(F)F)c1` [Compound 2-4]: the EC50 was in the range of 50 to 250 nM.

As to `CCC1CN(C(=O)CCC(=O)N2Cc3ccccc3C[C@H]2C(=O)N[C@@H](CCN)C(=O)Nc2ccc(Cl)c(C)c2)CCN1C` (some centres unmarked) [Compound 12-104], the concentration giving a half-maximal response (EC50) is below 50 nM.

For the compound `Cc1cc(NC(=O)[C@H](Cc2cncs2)NC(=O)[C@@H]2Cc3ccccc3CN2C(=O)CCC(=O)c2ccccc2)ccc1Cl` [Compound 5-3], the EC50 is 50 to 250 nM.

For the compound `Cc1cc(NC(=O)[C@H](CCNCC(C)C)NC(=O)[C@@H]2Cc3ccccc3CN2C(=O)CCC(=O)c2ccccc2)ccc1Cl` [Compound 8-1, (S)—N—((S)-1-((4-chloro-3-methylphenyl)amino)-4-(isobutylamino)-1-oxobutan-2-yl)-2-(4-oxo-4-phenylbutanoyl)-1,2,3,4-tetrahydroisoquinoline-3-carboxamide], the EC50 was below 50 nM.

Turning to `Cc1cc(NC(=O)[C@H](CCN)NC(=O)[C@@H]2Cc3ccccc3CN2C(=O)CCC(=O)N2CCC(C)(C)C2)ccc1Cl` [Compound 12-29], the EC50 is below 50 nM.

For `CC1(C)Cc2ccc(NC(=O)[C@H](CCN)NC(=O)[C@@H]3Cc4ccccc4CN3C(=O)CCC(=O)c3ccccc3)cc2C1` [Compound 2-75], the concentration giving a half-maximal response (EC50) fell in the range of 50 to 250 nM.

On to `CCN(CC)C(=O)CCC(=O)N1Cc2ccccc2C[C@H]1C(=O)N[C@@H](CCN)C(=O)Nc1ccc(Cl)c(Cl)c1F` [Compound 15-42], for which the concentration giving a half-maximal response (EC50) lay within 250 to 500 nM.

Consider `Cc1cc(NC(=O)[C@H](CCN)NC(=O)[C@@H]2Cc3ccccc3CN2C(=O)CCC(=O)N2CCC(C(C)C)CC2)ccc1Cl` [Compound 12-60], for which the EC50 is below 50 nM.
